Experimental data as given in patent publication US10513521B2, “Compositions and methods for inhibiting BMP” (The Brigham and Women's Hospital, Inc., priority 2014, dated 2019).
Changes are numbered by the printed parent chain. pIC50: −log10 of the molar value. Read-outs that look alike come from different tables or passages of the source.

Tests used:
ALK3 = ALK3 (Homo sapiens, UniProt P36894); assay: TR-FRET enzymatic ALK kinase assay, ALK3
Description: (§1) Briefly, the ALKs enzymatic assay was initiated by dispense 2.5 μl enzyme in 1× kinase reaction buffer. The assay plate was then added with compounds followed by incubation at room temperature for 10 minutes. Then 2.5 μl/well substrate was added.

ALK1 = ALK1 (Homo sapiens, UniProt P37023); assay: TR-FRET enzymatic ALK kinase assay, ALK1
Description: as §1

ALK2 [1] = target: T1, ALK2 (Mus musculus, UniProt P37172); assay: HTRF pSMAD1 cell-based ALK2 assay (C2C12 cells, BMP6 as agonist)
T1 construct: The C2C12 cell line was selected for the measurement of ALK2 activity using BMP6 as the agonist; host or cells: C2C12
T1 sequence (P37172 21-509): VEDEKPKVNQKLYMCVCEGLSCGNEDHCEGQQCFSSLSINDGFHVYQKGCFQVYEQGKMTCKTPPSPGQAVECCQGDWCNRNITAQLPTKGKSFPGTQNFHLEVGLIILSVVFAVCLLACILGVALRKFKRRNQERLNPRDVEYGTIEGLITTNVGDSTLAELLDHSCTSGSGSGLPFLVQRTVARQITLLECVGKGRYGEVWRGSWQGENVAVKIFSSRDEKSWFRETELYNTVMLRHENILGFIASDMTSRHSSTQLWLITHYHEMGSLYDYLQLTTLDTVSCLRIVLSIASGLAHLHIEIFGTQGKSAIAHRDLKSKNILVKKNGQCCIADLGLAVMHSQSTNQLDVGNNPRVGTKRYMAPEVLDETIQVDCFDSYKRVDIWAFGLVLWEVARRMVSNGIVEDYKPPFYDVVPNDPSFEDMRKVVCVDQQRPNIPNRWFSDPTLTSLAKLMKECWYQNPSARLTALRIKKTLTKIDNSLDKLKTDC
Summary of the method: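 Cells pre-starved, plated in 0.1% FBS medium for 4 h, compound added for 30 min, then stimulated 30 min with BMP9 (BAOEC) or BMP6 (C2C12). Phospho-SMAD1 measured by HTRF after overnight room-temperature detection incubation.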

ALK2 [2] = target: T2, ALK2 (Homo sapiens, UniProt Q04771); assay: TR-FRET enzymatic ALK kinase assay, ALK2
T2 sequence (Q04771 21-509): T1 sequence (P37172 21-509) with V1M, Q10P, I121L, E162D, S310P
Description: as §1

[3] = Cell-based assay, TGFb1 (Cell IC50)
ALK6 = ALK6 (Homo sapiens, UniProt O00238); assay: TR-FRET enzymatic ALK kinase assay, ALK6
Description: as §1

ALK5 = target: T3, ALK5 (Homo sapiens, UniProt P36897); assay: TR-FRET enzymatic ALK kinase assay, ALK5
T3 sequence (P36897 34-503): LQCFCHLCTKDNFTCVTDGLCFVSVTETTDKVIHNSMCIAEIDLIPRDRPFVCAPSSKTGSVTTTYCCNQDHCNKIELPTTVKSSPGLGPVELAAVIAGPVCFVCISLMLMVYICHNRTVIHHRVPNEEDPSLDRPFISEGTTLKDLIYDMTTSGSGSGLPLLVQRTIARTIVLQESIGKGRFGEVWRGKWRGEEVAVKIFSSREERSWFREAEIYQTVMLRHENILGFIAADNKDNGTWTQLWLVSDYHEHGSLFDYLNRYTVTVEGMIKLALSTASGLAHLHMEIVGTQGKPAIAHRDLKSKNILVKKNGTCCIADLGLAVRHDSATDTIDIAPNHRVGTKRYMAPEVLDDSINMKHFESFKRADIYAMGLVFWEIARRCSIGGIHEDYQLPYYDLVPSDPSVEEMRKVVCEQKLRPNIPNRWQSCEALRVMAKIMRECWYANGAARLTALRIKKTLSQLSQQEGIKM
Description: Six ALK kinase enzyme assays were developed for determination of compound activities on ALK1, ALK2, ALK3, ALK4, ALK5 and ALK6.
as §1

ALK4 = target: T4, ALK4 (Homo sapiens, UniProt P36896); assay: TR-FRET enzymatic ALK kinase assay, ALK4
T4 sequence (P36896 24-505): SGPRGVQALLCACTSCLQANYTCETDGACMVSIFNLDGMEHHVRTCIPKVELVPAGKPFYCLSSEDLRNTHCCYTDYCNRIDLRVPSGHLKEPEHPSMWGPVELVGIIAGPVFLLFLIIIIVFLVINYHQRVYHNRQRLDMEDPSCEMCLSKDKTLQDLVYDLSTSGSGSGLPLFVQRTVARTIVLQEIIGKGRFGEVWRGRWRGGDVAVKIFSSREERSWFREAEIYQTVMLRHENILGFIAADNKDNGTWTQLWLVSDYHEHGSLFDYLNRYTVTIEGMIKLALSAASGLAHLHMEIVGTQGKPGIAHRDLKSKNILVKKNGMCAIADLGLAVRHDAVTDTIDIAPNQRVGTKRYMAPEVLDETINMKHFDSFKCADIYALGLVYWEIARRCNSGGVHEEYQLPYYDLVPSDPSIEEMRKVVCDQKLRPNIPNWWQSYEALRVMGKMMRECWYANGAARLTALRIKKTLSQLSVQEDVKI
Description: as §1

[4] = cell-based assay, BMP6, read-out: Cell IC50 BMP6
[5] = HTRF assay, BMP6 as agonist, C2C12 cells, read-out: BMP6 HTRF

ALK3, sequence (P36894 24-532): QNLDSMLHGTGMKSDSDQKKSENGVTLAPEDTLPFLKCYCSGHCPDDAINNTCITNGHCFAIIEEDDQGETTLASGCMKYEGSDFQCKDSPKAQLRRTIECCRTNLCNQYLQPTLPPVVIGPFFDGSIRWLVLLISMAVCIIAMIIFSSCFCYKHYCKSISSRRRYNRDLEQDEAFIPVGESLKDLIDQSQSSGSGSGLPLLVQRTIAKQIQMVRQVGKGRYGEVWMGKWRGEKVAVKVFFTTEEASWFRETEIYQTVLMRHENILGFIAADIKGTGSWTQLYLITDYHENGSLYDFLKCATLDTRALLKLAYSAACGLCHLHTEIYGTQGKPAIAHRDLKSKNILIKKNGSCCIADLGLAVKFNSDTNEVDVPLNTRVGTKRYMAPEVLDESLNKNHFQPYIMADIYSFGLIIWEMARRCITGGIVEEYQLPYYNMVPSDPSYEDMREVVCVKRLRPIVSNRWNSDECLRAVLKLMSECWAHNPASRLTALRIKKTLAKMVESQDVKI
ALK6, sequence (O00238 14-502): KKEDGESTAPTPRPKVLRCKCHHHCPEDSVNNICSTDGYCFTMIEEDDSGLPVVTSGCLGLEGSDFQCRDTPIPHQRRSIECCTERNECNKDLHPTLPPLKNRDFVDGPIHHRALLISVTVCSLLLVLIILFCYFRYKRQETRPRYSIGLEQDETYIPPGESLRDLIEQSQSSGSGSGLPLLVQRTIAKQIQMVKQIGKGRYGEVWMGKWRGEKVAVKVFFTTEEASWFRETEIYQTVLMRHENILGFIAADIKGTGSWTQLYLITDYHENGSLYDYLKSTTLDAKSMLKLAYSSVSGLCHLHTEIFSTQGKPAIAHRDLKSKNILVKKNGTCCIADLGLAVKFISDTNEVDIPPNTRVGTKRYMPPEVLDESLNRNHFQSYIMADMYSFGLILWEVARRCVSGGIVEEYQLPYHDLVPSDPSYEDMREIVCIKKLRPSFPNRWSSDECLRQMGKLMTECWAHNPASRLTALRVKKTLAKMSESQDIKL
ALK1, sequence (P37023 22-503): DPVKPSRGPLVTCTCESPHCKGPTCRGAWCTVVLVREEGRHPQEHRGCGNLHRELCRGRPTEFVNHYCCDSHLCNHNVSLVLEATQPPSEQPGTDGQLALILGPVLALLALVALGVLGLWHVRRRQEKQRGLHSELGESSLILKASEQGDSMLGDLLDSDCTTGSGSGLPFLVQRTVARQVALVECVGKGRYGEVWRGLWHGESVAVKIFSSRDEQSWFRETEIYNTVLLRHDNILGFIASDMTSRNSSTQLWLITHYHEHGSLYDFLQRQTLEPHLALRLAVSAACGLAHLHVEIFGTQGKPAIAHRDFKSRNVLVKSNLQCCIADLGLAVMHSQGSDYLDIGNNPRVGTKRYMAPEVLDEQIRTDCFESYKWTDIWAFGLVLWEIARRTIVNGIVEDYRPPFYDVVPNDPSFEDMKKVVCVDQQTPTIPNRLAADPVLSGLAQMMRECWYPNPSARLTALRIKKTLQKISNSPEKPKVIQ

SMILES | pIC50 (ALK3) | pIC50 (ALK1) | pIC50 (ALK2 [1]; [4]) | pIC50 (ALK2 [2]) | pIC50 [3] | pIC50 (ALK6) | pIC50 (ALK5) | pIC50 (ALK4) | pIC50 (ALK2 [1]; [5])
CNC(=O)c1ccc(-c2cnn3cc(-c4ccc(N5CCNCC5)cc4)cnc23)c2ccccc12 [Compound 3, N-methyl-4-(6-(4-(piperazin-1-yl)phenyl)pyrazolo[1,5-a]pyrimidin-3-yl)-1-naphthamide] | 4.74 | 4.71 | 5.50 | 5.76 | 4.82 | – | – | – | –
C[C@@H]1CNC[C@H](C)N1c1ccc(-c2cnc3c(-c4ccc(CN)c5ccccc45)cnn3c2)cc1 [Compound 23, (4-(6-(4-((2R,6S)-2,6-dimethylpiperazin-1-yl)phenyl)pyrazolo[1,5-a]pyrimidin-3-yl)naphthalen-1-yl)methanamine] | – | 5.02 | 7.48 | 5.28 | 4.97 | – | – | – | –
CS(=O)(=O)c1cccc(-c2cnn3cc(-c4ccc(C(F)(F)CN5CCOCC5)cc4)cnc23)c1 [Compound 121, 4-(2,2-difluoro-2-(4-(3-(3-(methylsulfonyl)phenyl)pyrazolo[1,5-a]pyrimidin-6-yl)phenyl)ethyl)morpholine] | < 5.00 | 6.16 | 6.08 | 6.46 | – | < 5.00 | < 5.00 | < 5.00 | –
CS(=O)(=O)c1cccc(-c2cnn3cc(-c4ccc(C(F)(F)CN5CCNCC5)cc4)cnc23)c1 [Compound 122, 6-(4-(1,1-difluoro-2-(piperazin-1-yl)ethyl)phenyl)-3-(3-(methylsulfonyl)phenyl)pyrazolo[1,5-a]pyrimidine] | < 5.00 | 6.43 | 8.70 | 6.60 | – | < 5.00 | < 5.00 | < 5.00 | –
O=[S+]([O-])(c1cccc(-c2cnn3cc(-c4ccc(CN5CCCCC5)cc4)cnc23)c1)C1CC1 [Compound 125, 3-(3-(cyclopropylsulfonyl)phenyl)-6-(4-(piperidin-1-ylmethyl)phenyl)pyrazolo[1,5-a]pyrimidine] | < 5.00 | 6.37 | > 9.00 | 7.18 | – | 5.08 | < 5.00 | < 5.00 | –
CS(=O)(=O)c1cccc(-c2cnn3cc(-c4ccc(OC5(CN6CCCCC6)CC5)cc4)cnc23)c1 [Compound 134, 3-(3-(methylsulfonyl)phenyl)-6-(4-(1-(piperidin-1-ylmethyl)cyclopropoxy)phenyl)pyrazolo[1,5-a]pyrimidine] | 5.85 | 6.57 | – | 7.35 | – | < 5.00 | < 5.00 | < 5.00 | 6.57
CS(=O)(=O)c1cccc(-c2cnn3cc(-c4ccc(CN5CCCC5)cc4)cnc23)c1 [Compound 164, 3-(3-(methylsulfonyl)phenyl)-6-(4-(pyrrolidin-1-ylmethyl)phenyl)pyrazolo[1,5-a]pyrimidine] | 6.41 | 7.48 | – | 8.52 | – | 5.01 | 5.09 | 5.36 | 6.74

The remaining compounds from weak to strong by pIC50 (ALK1), led by results:

pIC50 (ALK3) | pIC50 (ALK1) | pIC50 (ALK2 [1]; [4]) | pIC50 (ALK2 [2]) | pIC50 [3] | pIC50 (ALK6) | pIC50 (ALK5) | pIC50 (ALK4) | pIC50 (ALK2 [1]; [5]) | SMILES
– | 4.81 | 6.23 | 5.55 | 4.97 | 4.12 | – | – | – | CN(C)C(=O)c1ccc(-c2cnn3cc(-c4ccc(N5CCNCC5)cc4)cnc23)c2ccccc12 [Compound 4, N,N-dimethyl-4-(6-(4-(piperazin-1-yl)phenyl)pyrazolo[1,5-a]pyrimidin-3-yl)-1-naphthamide]
< 5.00 | 5.15 | – | 7.85 | 4.91 | < 5.00 | < 5.00 | < 5.00 | – | c1cc(-c2nn[nH]n2)cc(-c2cnn3cc(-c4ccc(CCN5CCCCC5)cc4)cnc23)c1 [Compound 89, 3-(3-(2H-tetrazol-5-yl)phenyl)-6-(4-(2-(piperidin-1-yl)ethyl)phenyl)pyrazolo[1,5-a]pyrimidine]
5.96 | 6.22 | – | 7.31 | – | 5.03 | < 5.00 | < 5.00 | 6.43 | CC(O)c1cccc(-c2cnn3cc(-c4ccc(OC5(CN6CCCC6)CC5)cc4)cnc23)c1 (stereo not drawn) [Compound 167, 1-(3-(6-(4-(1-(pyrrolidin-1-ylmethyl)cyclopropoxy)phenyl)pyrazolo[1,5-a]pyrimidin-3-yl)phenyl)ethanol]
5.89 | 6.23 | – | 7.27 | – | 5.25 | < 5.00 | < 5.00 | 6.35 | C[C@@H](O)c1cccc(-c2cnn3cc(-c4ccc(OC5(CN6CCCCC6)CC5)cc4)cnc23)c1 [Compound 152, (R)-1-(3-(6-(4-(1-(piperidin-1-ylmethyl)cyclopropoxy)phenyl)pyrazolo[1,5-a]pyrimidin-3-yl)phenyl)ethanol]
< 5.00 | 6.36 | 8.27 | 7.00 | – | < 5.00 | < 5.00 | < 5.00 | – | CC(O)c1cccc(-c2cnn3cc(-c4ccc(CN5CCCCC5)cc4)cnc23)c1 (stereo not drawn) [Compound 124, 1-(3-(6-(4-(piperidin-1-ylmethyl)phenyl)pyrazolo[1,5-a]pyrimidin-3-yl)phenyl)ethanol]
6.06 | 6.56 | 6.42 | 7.42 | 5.17 | – | – | – | – | N/C(=N/O)c1ccc(-c2cnn3cc(-c4ccc(N5CCNCC5)cc4)cnc23)cc1 [Compound 13, N′-hydroxy-4-(6-(4-(piperazin-1-yl)phenyl)pyrazolo[1,5-a]pyrimidin-3-yl)benzimidamide]
5.54 | 6.66 | – | 7.24 | – | < 5.00 | < 5.00 | < 5.00 | 6.42 | CC(O)c1cccc(-c2cnn3cc(-c4ccc(C5(C)CCNCC5)cc4)cnc23)c1 (stereo not drawn) [Compound 136, 1-(3-(6-(4-(4-methylpiperidin-4-yl)phenyl)pyrazolo[1,5-a]pyrimidin-3-yl)phenyl)ethanol]
6.85 | 7.49 | – | 8.52 | – | 5.51 | 5.23 | 5.89 | 6.62 | CC(O)c1cccc(-c2cnn3cc(-c4ccc(CN5CCCC5)cc4)cnc23)c1 (stereo not drawn) [Compound 165, 1-(3-(6-(4-(pyrrolidin-1-ylmethyl)phenyl)pyrazolo[1,5-a]pyrimidin-3-yl)phenyl)ethanol]
